Reference: ChEMBL document CHEMBL2176898, “3-Alkoxy-1,2-Dioxolanes: Synthesis and Evaluation as Potential Antimalarial Agents” (ACS Med Chem Lett, 2011)

System: Plasmodium falciparum
Experiment: microbe, parasite or virus in culture
Conditions: NF54
Description: Antimicrobial activity against Plasmodium falciparum NF54

Compound	IC50 [µM]
CC1(C)CC(C)(OCC23CC4CC(CC(C4)C2)C3)OO1 (stereo unspecified)	0.29
CC1(OCC23CC4CC(CC(C4)C2)C3)CC2(CCCCC2)OO1 (stereo unspecified)	0.035
CC1(OCCc2ccccc2)CC2(CCCCC2)OO1 (stereo unspecified)	0.009
COC1(Cc2ccccc2)CC(C)(C)OO1 (stereo unspecified)	0.97
CCCCC1(C)CC(C)(OCCC)OO1 (mixture of isomers)	> 4
CCCCC1(C)CC(C)(OCCc2ccccc2)OO1 (mixture of isomers)	0.076
CCCCC1(C)CC(C)(OCC23CC4CC(CC(C4)C2)C3)OO1 (mixture of isomers)	0.14
COC1(Cc2ccccc2)CC2(CCCCC2)OO1 (stereo unspecified)	0.34
CCCCOC1(C)CC(C)(C)OO1 (stereo unspecified)	> 10
C[C@H]1[C@H](OC(=O)CCC(=O)O)O[C@@H]2O[C@@]3(C)CC[C@H]4[C@H](C)CC[C@@H]1[C@@]24OO3 [ARTESUNATE]	0.0025
COC1(C2CCCCC2)CC2(CCCCC2)OO1 (stereo unspecified)	0.0092
